Experimental data taken from US7148243B2, “Antivirals” (Medivir AB, priority 1998, dated 2006).
“And” between values parts separate entries of the source, which are not always exact repeats. Equal entries are not always repeated. Where two headings read alike, the source gives them in different places.

How the values were obtained:
[1] = target: T1, HIV reverse transcriptase (Human immunodeficiency virus type 1 group M subtype B, UniProt P04585); test: Binding kinetics by surface plasmon resonance (Biological Example 10); conditions: dissociation phase, 25° C., FIG. 3, versus prior art Santa Fe compound
T1 construct: made in house
From the text: The rate of association and dissociation of an NNRTI on the target enzyme can be directly assayed by surface plasmon resonance methodology, wherein reverse transcriptase is immobilized on the surface of a chip and the binding or dissociation of the putative inhibitor is monitored by observing the changes in refractive index caused by the concomitant increase or decrease in chip mass. A compound of the invention (Example 8) was compared to the closest prior art compound from Santa Fe, as depicted above. Experiments were performed on a BIACORE® 2000 (Biacore AB, Uppsala, Sweden), using BIAEVALUATION® software (ver 3.0) for evaluation of data. The binding of the small analyte (NNRTI) to the much larger enzyme results in binding responses in the range of 10–20 RU. […] During the dissociation phase there is insignificant change in bulk refractive index, thus the binding of the different substances have been evaluated during this phase. […]
Interaction with inhibitors: Stock solutions of inhibitors (1 mg/ml in DMSO) were dissolved in RT running buffer (10 mM Hepes pH 7.6; 4 mM MgCl2; 0.25 mM spermine; 40 mM KCl; 0.5% TRITON® X-100; 3% DMSO; 0.5% fetal calf serum) to a concentration of […]. Binding of substance to the RT was analysed by injection of […] of the diluted substance, the flow rate was […] and the temperature 25° C. […]

HIV-1 IIIB = test: Time to resistance, weekly passage in MT4 cells (Biological Example 2); type: cell-based; conditions: growth of viral resistance against time, FIG. 1, versus closest Santa Fe compound
Procedure: 2×10^4 MT4 cells per well in a microtitre plate are infected with 5–10 TCID50 of HIV-1 IIIB. The compounds being tested are added at concentrations around ED50 using 8 duplicates per concentration. After 6 days of incubation the RT activity in 10 μl supernatent is measured.
The following procedure is followed at subsequent passages of the cultures once per week.: Virus produced at the concentration of test compound showing >50% of the RT activity of untreated infected cells (SIC, Starting Inhibitory Concentration) are passaged to fresh MT4 cells. 15 μl supernatent from each of the eight duplicates are transferred to cells without the test compound (control) and to cells with test compound at the same concentration, and additionally two respectively fivefold higher concentrations. (See Table 2 below)
When viral growth is permitted at the highest non-toxic concentration (5–40 μM), 2–4 parallel wells are collected and expanded to give material for sequence analysis and cross-wise resistance.
FIG. 1 plots the growth of viral resistance for a compound of the invention (Example 8) against time. Also plotted is the corresponding curve for the closest Santa Fe compound, mentioned above.

[2] = Release of mother compound from orally administered prodrug, plasma level (Biological Example 4); type: in vivo, Sprague Dawley rats; conditions: oral Example 7 0.027 mmol/kg in propylene glycol, released Example 6 assayed
Procedure: The release of a compound of Formula I from an orally administered prodrug of Formula II was monitored in rats. The compound of Example 7 was made up in a propylene glycol vehicle and orally administered to paired fasted male Sprague Dawley rats at a dose corresponding to 0.027 mmol/kg. At the indicated time intervals, 0.2 ml blood was collected from a catheter implanted in the […] jugularis, centrifuged and frozen for later analysis. The released drug of Formula I (Example 6) was assayed by HPLC.

[3] = for plasma level of mother compound: 0.027 mmol/kg
Procedure: The rats used in pharmacokinetic examples were male Sprague-Dawley, with a weight about 200–250 g. The rats were fasted for at least 16 hours before the experiment, but had free access to water. The day before the experiment the rats were anaesthetized using a mixture of Efrane®, laughing gas and oxygen. A catheter was introduced into the vena jugularis. On the day of the experiment the weights of the rats were noted. The animals were shortly anaesthesized before the oral dose was given or the iv dose injected into the back of the neck. Each substance was administered to duplicate rats.
Compounds were dissolved in DMSO for intravenous administration.
The blood samples were centrifuged infectious agents neutralised with 1% SDS/64°/20 min and plasma stored at −20° C.
Plasma samples are prepared as follows: 40–100 μl of plasma is mixed with an equal volume of acetonitrile (10 seconds, Vibrofex). The sample is centrifuged (2 min, 14000 RPM) and 30 μl of the supernantant is injected into an HPLC system, as follows.
The vehicle was 10% acacia and 1% Tween in water or propylene glycol (asterisked).

[4] = Bioavailability in different species, plasma level of mother compound (Biological Example 7); type: in vivo, cynomolgus monkeys; conditions: monkey, Example 12 0.026 mmol/kg, acacia/Tween
Procedure: Monkeys were fasted for 12 hours prior to oral administration but had free access to water. The test compound was delivered via an infant nasogastric feeding tube. After 6 hours the monkeys received an apple.
(§1) A prodrug of the invention of Formula II (Example 12) was administered at the same dose (0.026 mmol/kg) and in the same vehicle (10% acacia and 1% Tween in water) to rats and cynomolgus monkeys. Plasma levels of the mother compound of Formula I (Example 10) was measured as a function of time.

[5] = as above; type: in vivo; conditions: rat, Example 12 0.026 mmol/kg, acacia/Tween
Procedure: Each substance was administered to duplicate rats.
as §1
The corresponding data for the compound of Example 28 (rat: acacia/Tween, monkey:propylene glycol) are shown in Table 5A: […]

HIV = conditions: after only four weeks of therapy, virus isolated from patient serum; cited from earlier work

Structure (SMILES): CCC(=O)c1ccc(F)c([C@@H]2C[C@@H]2NC(=O)Nc2ccc(C#N)cn2)c1O (stereo in doubt) [Example 8, (1 S,2S)-N-(cis-2-(6-fluoro-2-hydroxy-3-propionoylphenyl)-cyclopropyl)-N′-(5-cyanopyrid-2-yl)-urea]
- dissociation rate from reverse transcriptase [1]: dissociating with the lowest rate
- rate of resistance development (HIV-1 IIIB): significantly slower rate of resistance development

Structure (SMILES): CCC(=O)c1ccc(F)c([C@H]2C[C@H]2NC(=O)Nc2ccc(C#N)cn2)c1OC(=O)c1cccc(N)c1 (relative stereo) [Example 7, (1R, 2R)-N-[cis-2-(2-(3-aminophenylcarbonyloxy)-6-fluoro-3-propionylphenyl)-cyclopropyl]-N′-(5-cyanopyrid-2-yl)-urea]
- plasma level of mother compound ([2]; 30 min, individual rats): 240 ng/mL and 350 ng/mL
- plasma level of mother compound ([2]; 60 min): 180 ng/mL and 280 ng/mL
- plasma level of mother compound ([2]; 120 min): 130 ng/mL and 170 ng/mL
- plasma level of mother compound ([2]; 240 min): 70 ng/mL and 120 ng/mL
- plasma level of mother compound ([2]; 360 min): 50 ng/mL and 70 ng/mL

Structure (SMILES): CCC(=O)c1ccc(F)c([C@@H]2C[C@@H]2NC(=O)Nc2ccc(C#N)cn2)c1OCOC(=O)c1ccc(O)cc1 (relative stereo) [Example 37, (1S, 2S)-N-[cis-2-(6-fluoro-2-O-3-propionylphenyl)-cyclopropyl]-N′-[2-(5-cyanopyridyl)]urea-O-methylene-4-hydroxybenzoate]
- plasma level of mother compound ([3]; propylene glycol (asterisked), 30 min): 234 ng/mL and 137 ng/mL
- plasma level of mother compound ([3]; propylene glycol, 60 min): 273 ng/mL and 189 ng/mL
- plasma level of mother compound ([3]; propylene glycol, 120 min): 111 ng/mL and 133 ng/mL
- plasma level of mother compound ([3]; propylene glycol, 240 min): 56 ng/mL and 45 ng/mL
- plasma level of mother compound ([3]; propylene glycol, 360 min): 54 ng/mL and 56 ng/mL
- absolute oral bioavailability ([3]; determined relative to the iv dose, rats): 28–33%

Structure (SMILES): CCC(=O)c1ccc(F)c([C@@H]2C[C@@H]2NC(=O)Nc2ccc(Br)cn2)c1OC(=O)c1cccc(N)c1 (relative stereo) [Example 12, (1S, 2S)-N-[cis-2-(2-(3-aminophenylcarbonyloxy)-6-fluoro-3-propionylphenyl)cyclopropyl]-N′-(5-bromopyrid-2-yl)-urea]
- plasma level of mother compound ([4]; 45 min, mother compound Example 10): 80 ng/mL and 40 ng/mL
- plasma level of mother compound ([4]; 90 min): 200 ng/mL and 260 ng/mL
- plasma level of mother compound ([4]; 180 min): 1000 ng/mL and 550 ng/mL
- plasma level of mother compound ([4]; 240 min): 720 ng/mL and 540 ng/mL
- plasma level of mother compound ([4]; 360 min): 380 ng/mL and 390 ng/mL
- plasma level of mother compound ([4]; 600 min): 130 ng/mL and 100 ng/mL
- plasma level of mother compound ([4]; 24 h): 30 ng/mL
- plasma level of mother compound ([5]; 30 min, mother compound Example 10): 90 ng/mL and 50 ng/mL
- plasma level of mother compound ([5]; 60 min): 100 ng/mL and 70 ng/mL
- plasma level of mother compound ([5]; 120 min): 90 ng/mL and 80 ng/mL
- plasma level of mother compound ([5]; 180 min): 80 ng/mL
- plasma level of mother compound ([5]; 240 min): 60 ng/mL and 50 ng/mL

Structure (SMILES): Cc1ccnc2c1NC(=O)c1cccnc1N2C1CC1 [nevirapine]
- loss of sensitivity of patient virus to the drug versus virus from untreated patients (HIV): 100 fold
